From patent US4764358A, “Radiolabeled dimethyl branched long chain fatty acid for heart imaging” (The United States of America as represented by the United …, priority 1986, dated 1988)
Where two headings read alike, the source gives them in different places. Values belong to the compound of their own block, whether it stands above or below them.

What was measured:
[1] = Triple-label experiment, (123I)DMIPP/(131I)BMIPP/(125I)IPP mixture in fasted rats; type: in vivo, fasted female Fischer rats; settings: for initial uptake or "extraction" phase (myocardial): DMIPP, BMIPP and IPP compared
Excerpt: Nevertheless, in the present experiment, the mass of each fatty acid injected was very similar to eliminate any effects of possible synergistic action on myocardial uptake.

[2] = Effect of relative BMIPP/IPP mass ratios on biodistribution properties in rats; type: in vivo; settings: ratios of up to 6:1
Excerpt: Nevertheless, in the present experiment, the mass of each fatty acid injected was very similar to eliminate any effects of possible synergistic action on myocardial uptake. […] Within a few minutes following injection, however, differences in retention are clearly evident in fasted animals.

[3] = Myocardial uptake/retention and heart:blood ratio, DMIPP compared with monomethyl BMIPP and IPP; settings: after 60 min
Description: Iodine-125 DMIPP was administered in 6% BSA solution to groups of fasted and fed rats. The animals were killed at time periods varying from 5 min to 8 h and selected tissues and aliquots of blood removed and analyzed in a gamma spectrometer.

[4] = in vivo; set-up: species or system female Fischer rats; settings: rat, iv; for tissue uptake at 5 min / tissue uptake at 0.5 h / tissue uptake at 1 h / tissue uptake at 2 h / tissue uptake at 4 h / tissue uptake at 8 h: distribution of radioactivity
Description: (§1) DISTRIBUTION OF RADIOACTIVITY
(% INJECTED DOSE/GRAM OF TISSUE) IN FASTED
(§2) RATS AT VARIOUS TIMES AFTER INTRAVENOUS ADMINISTRATION OF
(§3) 15-(p-[^125 I]IODOPHENYL)-3,3-DIMETHYLPENTADECANOIC ACID (DMIPP)
Mean and range values for five (5, 30 and 60 min) or four (2, 4 and 8 h)
female Fischer rats. Other tissues that were analyzed include spleen,
as §1
(% INJECTED DOSE/ORGAN OF TISSUE) IN FASTED
as §2, §3
Time after injection; Percent injected dose/organ (range)

[5] = Myocardial retention after intravenous administration to unfasted rats; type: in vivo; settings: first couple of hours after intravenous administration
Excerpt: Dimethyl branching was placed at the beta carbon to compare it with the monomethyl branched analogue and because of ease of synthesis. It is believed that dimethyl branching at the alpha carbon would give similar results.

[6] = rat, in vivo

Compound: CC(CCCCCCCCCCCCc1ccc([123I])cc1)CC(=O)O (stereo not drawn) [BMIPP]
initial uptake or "extraction" phase (myocardial) [1]: very similar for these three agents
effect of relative BMIPP/IPP mass ratios on biodistribution properties [2]: insignificant effect
loss (washout) from heart [3]: approximately 40%

Blood, distribution of radioactivity ([4]; 5 min): 8.47 % injected dose/organ
Heart, distribution of radioactivity ([4]; 5 min): 1.95 % injected dose/organ
Kidneys, distribution of radioactivity ([4]; 5 min): 1.45 % injected dose/organ
Liver, distribution of radioactivity ([4]; 5 min): 30.9 % injected dose/organ
Lungs, distribution of radioactivity ([4]; 5 min): 1.63 % injected dose/organ
Mean Heart:Blood ([4]; 5 min): 3:1
Thyroid, distribution of radioactivity ([4]; 5 min): 0.14 % injected dose/organ
Blood, distribution of radioactivity ([4]; 30 min): 2.30 % injected dose/organ
Heart, distribution of radioactivity ([4]; 30 min): 2.09 % injected dose/organ
Kidneys, distribution of radioactivity ([4]; 30 min): 1.49 % injected dose/organ
Liver, distribution of radioactivity ([4]; 30 min): 28.8 % injected dose/organ
Lungs, distribution of radioactivity ([4]; 30 min): 0.99 % injected dose/organ
Mean Heart:Blood ([4]; 30 min): 12:1
Thyroid, distribution of radioactivity ([4]; 30 min): 0.15 % injected dose/organ
Blood, distribution of radioactivity ([4]; 60 min): 2.41 % injected dose/organ
Heart, distribution of radioactivity ([4]; 60 min): 2.24 % injected dose/organ
Kidneys, distribution of radioactivity ([4]; 60 min): 1.51 % injected dose/organ
Liver, distribution of radioactivity ([4]; 60 min): 32.4 % injected dose/organ
Lungs, distribution of radioactivity ([4]; 60 min): 0.98 % injected dose/organ
Mean Heart:Blood ([4]; 60 min): 12.5:1
Thyroid, distribution of radioactivity ([4]; 60 min): 0.11 % injected dose/organ
Blood, distribution of radioactivity ([4]; 120 min): 2.24 % injected dose/organ
Heart, distribution of radioactivity ([4]; 120 min): 1.99 % injected dose/organ
Kidneys, distribution of radioactivity ([4]; 120 min): 1.62 % injected dose/organ
Liver, distribution of radioactivity ([4]; 120 min): 22.8 % injected dose/organ
Lungs, distribution of radioactivity ([4]; 120 min): 0.87 % injected dose/organ
Mean Heart:Blood ([4]; 120 min): 12.6:1
Thyroid, distribution of radioactivity ([4]; 120 min): 0.17 % injected dose/organ
Blood, distribution of radioactivity ([4]; 240 min): 2.04 % injected dose/organ
Heart, distribution of radioactivity ([4]; 240 min): 1.56 % injected dose/organ
Kidneys, distribution of radioactivity ([4]; 240 min): 1.58 % injected dose/organ
Liver, distribution of radioactivity ([4]; 240 min): 16.7 % injected dose/organ
Lungs, distribution of radioactivity ([4]; 240 min): 1.77 % injected dose/organ
Mean Heart:Blood ([4]; 240 min): 11.2:1
Thyroid, distribution of radioactivity ([4]; 240 min): 0.22 % injected dose/organ
Blood, distribution of radioactivity ([4]; 480 min): 1.59 % injected dose/organ
Heart, distribution of radioactivity ([4]; 480 min): 1.05 % injected dose/organ
Kidneys, distribution of radioactivity ([4]; 480 min): 1.34 % injected dose/organ
Liver, distribution of radioactivity ([4]; 480 min): 11.4 % injected dose/organ
Lungs, distribution of radioactivity ([4]; 480 min): 0.66 % injected dose/organ
Mean Heart:Blood ([4]; 480 min): 9.3:1
Thyroid, distribution of radioactivity ([4]; 480 min): 0.28 % injected dose/organ
tissue uptake at 5 min ([4]; Blood): 1.48 %ID/g
tissue uptake at 0.5 h ([4]; Blood): 0.42 %ID/g
tissue uptake at 1 h ([4]; Blood): 0.36 %ID/g
tissue uptake at 2 h ([4]; Blood): 0.35 %ID/g
tissue uptake at 4 h ([4]; Blood): 0.31 %ID/g
tissue uptake at 8 h ([4]; Blood): 0.24 %ID/g
tissue uptake at 5 min ([4]; Heart): 4.67 %ID/g
tissue uptake at 0.5 h ([4]; Heart): 5.06 %ID/g
tissue uptake at 1 h ([4]; Heart): 4.49 %ID/g
tissue uptake at 2 h ([4]; Heart): 4.37 %ID/g
tissue uptake at 4 h ([4]; Heart): 3.53 %ID/g
tissue uptake at 8 h ([4]; Heart): 2.24 %ID/g
tissue uptake at 5 min ([4]; Kidneys): 1.39 %ID/g
tissue uptake at 0.5 h ([4]; Kidneys): 1.47 %ID/g
tissue uptake at 1 h ([4]; Kidneys): 1.46 %ID/g
tissue uptake at 2 h ([4]; Kidneys): 1.41 %ID/g
tissue uptake at 4 h ([4]; Kidneys): 1.39 %ID/g
tissue uptake at 8 h ([4]; Kidneys): 1.19 %ID/g
tissue uptake at 5 min ([4]; Liver): 7.73 %ID/g
tissue uptake at 0.5 h ([4]; Liver): 7.3 %ID/g
tissue uptake at 1 h ([4]; Liver): 6.02 %ID/g
tissue uptake at 2 h ([4]; Liver): 5.32 %ID/g
tissue uptake at 4 h ([4]; Liver): 3.56 %ID/g
tissue uptake at 8 h ([4]; Liver): 2.52 %ID/g
tissue uptake at 5 min ([4]; Lungs): 2.15 %ID/g
tissue uptake at 0.5 h ([4]; Lungs): 1.42 %ID/g
tissue uptake at 1 h ([4]; Lungs): 1.17 %ID/g
tissue uptake at 2 h ([4]; Lungs): 1.12 %ID/g
tissue uptake at 4 h ([4]; Lungs): 0.97 %ID/g
tissue uptake at 8 h ([4]; Lungs): 0.79 %ID/g
tissue uptake at 5 min ([4]; Thyroid): 16.7 %ID/g
tissue uptake at 0.5 h ([4]; Thyroid): 18.5 %ID/g
tissue uptake at 1 h ([4]; Thyroid): 15.8 %ID/g
tissue uptake at 2 h ([4]; Thyroid): 17.9 %ID/g
tissue uptake at 4 h ([4]; Thyroid): 22.9 %ID/g
tissue uptake at 8 h ([4]; Thyroid): 27.8 %ID/g
initial uptake or "extraction" phase (myocardial) [1]: very similar for these three agents
heart-to-blood ratio [6]: 10/1
heart:blood ratios, in words [6]: much higher heart:blood ratios
loss (washout) from heart [6]: approximately 24%
myocardial uptake [6]: high myocardial uptake
retention in the heart [6]: prolonged retention
t1/2 (heart retention) [6]: 12 h
time it remained measurable (in the heart) [6]: up to 12 hours
mean heart:blood ratios ([6]; 15 min): greater than 10:1
Compound: CC(C)(CCCCCCCCCCCCc1ccc(I)cc1)CC(=O)O [DMIPP, 15-(p-iodophenyl)-3,3-dimethylpentadecanoic acid]
retention and heart:blood ratios (triple label) ([1]; in comparison to BMIPP and IPP): greater retention and higher heart:blood ratios
myocardial retention [5]: essentially irreversible myocardial retention
myocardial retention, effect of dimethyl branching into the IPP molecule [6]: substantial increase in the myocardial retention
radioiodine in the blood, effect of dimethyl branching into the IPP molecule [6]: dramatic decrease of radioiodine in the blood

Compound: O=C(O)CCCCCCCCCCCCCCc1ccc([125I])cc1 [IPP, reference compound]
initial uptake or "extraction" phase (myocardial) [1]: very similar for these three agents
effect of relative BMIPP/IPP mass ratios on biodistribution properties [2]: insignificant effect
